The values below come from PubChem BioAssay (NCI).

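A five-concentration, 48-hour dose response in 96-well plates underlies each endpoint, interpolated linearly between surrounding concentrations. GI50 marks 50% less growth. Definition used: TGI = concentration required for complete inhibition of growth.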 Where only a bound is given, the exact number is not on record here.

Experiment in all cases: inhibition of tumour cell growth, NCI panel, 48 h
The test system of assay [1] is RXF 393 renal.
The test system of assay [2] is UACC-62 melanoma.
In assay [3] the test system is SK-MEL-28 melanoma.
Assay [4] concerns UACC-257 melanoma.
The test system of assay [5] is SNB-19 CNS.
In assay [6] the test system is A549 NSCLC.
The subject of assay [7] is SNB-75 CNS.
Assay [8] deals with A498 renal.
For assay [9], the system named is CCRF-CEM leukemia.

For the compound `O=C1CC2=CCCC2O1` (stereo unspecified), the TGI in assay [1], in [2], in assay [3], in assay [4], in assay [5] and in assay [6] was above 100 µM each time. Further, the TGI in assay [7], in assay [8] and in [9] was above 100 µM throughout.

Regarding `CC(=O)CC(=O)Nc1ccc(OS(N)(=O)=O)cc1`, the TGI in assay [1], in assay [2], in [3], in [4], in assay [5] and in [6] was above 100 µM each time. The TGI in [7], in assay [8] and in assay [9] was above 100 µM throughout.

In the case of `CCOC(=O)N1C/C(=C\c2ccc(N(C)C)cc2)C(=O)/C(=C/c2ccc(N(C)C)cc2)C1`, the TGI in assay [1], in assay [2], in [3], in assay [4], in assay [5] and in assay [6] was above 100 µM each time. For the same compound, the TGI in assay [7], in assay [8] and in assay [9] was above 100 µM throughout.

As for `Nc1ccccc1SC(CC(=O)c1ccccc1)c1c(Cl)cccc1Cl` (stereo unspecified), the GI50 in assay [1] is 4.23 µM; in [3] it was 11.6 µM; in assay [4] it was 14.6 µM; in assay [5] it was 10.5 µM; in assay [6], 21.8 µM; in assay [7] it was 10.8 µM. For the same compound, the GI50 in assay [8] is 11.2 µM; in assay [9] it was 2.67 µM. For the same compound, the TGI in assay [1] stood at 17.4 µM; in assay [3] it was 23.9 µM; in assay [4] it was 28.6 µM; in assay [5], 22.9 µM; in [6] it was 58.1 µM; in assay [7], 30.1 µM. In addition, the TGI is 24 µM in [8] and 8.49 µM in assay [9].

Turning to `CC[P+](C)(C)CC`, the TGI in [1], in [2], in assay [3], in assay [4], in assay [5] and in [6] was above 100 µM throughout. For the same compound, the TGI in assay [7] and in assay [9] was above 100 µM throughout.

As for `CC(C)CC1CC2C(=O)N(c3ccccc3)C(=O)C2c2[nH]c3ccccc3c21` (stereo unspecified), the TGI in assay [1] was 44.9 µM; in assay [2], above 31.6 µM; in [3], above 55.7 µM; in assay [4], above 100 µM; in assay [5] it was above 100 µM; in assay [6], above 53.8 µM. The TGI is 30.6 µM in assay [7], above 51.3 µM in assay [8] and above 56.6 µM in [9].

With `COc1ccc(C2=NC(CO)[C@H](c3ccccc3)O2)cc1OC` (stereo partly specified), the TGI in assay [2], in assay [4], in assay [5], in assay [6], in [7] and in assay [8] was above 100 µM in each case. Also, in assay [9], the TGI was above 100 µM.

On to `Cc1c(C(=O)Nc2ccc(Oc3ccnc4cc(OCC(C)(C)O)ccc34)c(F)c2)c(=O)n(-c2ccccc2)n1C`, for which the values for the GI50 in assay [1], in [5] and in assay [7] were 2.72 µM, 7.23 µM and 2.93 µM, respectively. In addition, the TGI in assay [1], in assay [5] and in assay [7] was above 100 µM throughout.

Take `NC(=O)c1c(-c2ccccc2)c(-c2ccccc2)cc2c(=O)c3ccccc3[nH]c12`: the TGI in assay [2] was 96.8 µM; in assay [3], 37.6 µM; in assay [4], above 100 µM; in assay [5] it was 52.4 µM; in assay [6], 50.6 µM; in assay [7] it was 41.7 µM. For the same compound, the figures for the TGI in assay [8] and in assay [9] were 39.7 µM and above 100 µM, respectively.

Consider `O=C(OCc1ccccc1)N1N=NC2C3CC(OCc4ccccc4)(OCc4ccccc4)C(O3)C21` (stereo unspecified), for which the TGI in assay [1] was 35.6 µM; in assay [2], 61.4 µM; in [3] it was 55.1 µM; in [4], 41.4 µM; in assay [6] it was above 100 µM; in assay [7], 82.4 µM. The TGI in [8] and in assay [9] was above 100 µM in each case.

For the compound `CCCOC(=O)C1C(c2ccc(OC)cc2)NC(c2ccc(OC)cc2)C(C(=O)OCCC)S1(=O)=O` (stereo unspecified), the GI50 in assay [1], in assay [2], in assay [3], in [4], in [5] and in assay [6] was above 100 µM in each case. Besides, in assay [7], the GI50 was above 100 µM. Further, the TGI in assay [1], in assay [2], in assay [3], in [4], in assay [5] and in assay [6] was above 100 µM in each case. For the same compound, the TGI in assay [7] and in assay [8] was above 100 µM each time.

As to `COc1ccc(C)cc1-c1ccc(-c2cc(C)ccc2OC)o1`, the TGI in [2], in assay [3], in assay [4], in assay [5], in assay [6] and in assay [7] was above 100 µM in each case. Moreover, the TGI in [8] and in [9] was above 100 µM each time.

Regarding `C=CCN=C1NC(=O)C(CC(=O)Nc2ccc([N+](=O)[O-])cc2[N+](=O)[O-])S1` (stereo unspecified), the TGI in assay [1], in assay [2], in assay [3], in assay [4], in assay [5] and in assay [6] was above 100 µM in each case. Besides, the TGI in [7], in assay [8] and in assay [9] was above 100 µM throughout.

`NNC(=O)C(=O)N/N=C1\CCCC1C(=O)CCC(=O)Nc1cccc(Cl)c1` (stereo unspecified): the TGI in assay [1], in [2], in [3], in assay [4], in [5] and in assay [6] was above 100 µM in each case. Besides, the TGI in assay [7] and in assay [9] was above 100 µM each time.

Regarding `Oc1ccc(Br)cc1C=Nc1ccc(Oc2ccc(N=Cc3cc(Br)ccc3O)cc2)cc1`, the TGI in assay [1], in assay [2], in assay [3], in assay [4], in assay [5] and in assay [6] was above 19.6 µM throughout. Besides, the TGI in [7], in [8] and in assay [9] was above 19.6 µM each time.

For `O=S(=O)(c1ccccc1)C1(C2(S(=O)(=O)c3ccccc3)CCN=N2)CCN=N1` (stereo unspecified), the TGI in assay [1], in assay [3], in assay [4], in [5], in assay [6] and in assay [7] was above 100 µM in each case. In assay [9], this compound gave a TGI above 100 µM.

Turning to `O=[N+]([O-])C(=C1c2ccccc2-c2ccccc21)[N+](=O)[O-]`, the TGI in assay [1], in assay [2], in assay [3], in [4], in [5] and in [6] was above 100 µM each time. Moreover, the TGI in assay [8] and in assay [9] was above 100 µM each time.

Consider `CC[C@@]1(O)C(=O)OCc2c1cc1n(c2=O)Cc2cc3c(N)c(OC)ccc3nc2-1`, for which the GI50 in assay [1] is 0.0708 µM; in assay [2], below 0.01 µM; in assay [3], 0.466 µM; in assay [4] it was 0.219 µM; in assay [5] it was below 0.0238 µM; in assay [6], 0.0445 µM. Also, the GI50 in assay [7] is 0.0339 µM; in assay [8] it was 0.156 µM; in [9], below 0.01 µM. Further, the TGI in assay [1] was 0.426 µM; in assay [2] it was 0.0285 µM; in assay [4], 2.15 µM; in assay [5], above 61.9 µM; in assay [6], 1.91 µM; in [7], 0.265 µM. The TGI in assay [8] is 0.726 µM; in [9], 0.0409 µM.

Consider `Cc1ccc(C)c(NC(=O)C(=O)C(C2C(C)CC(=O)C2CC(=O)O)[N+](=O)[O-])c1` (stereo unspecified), for which the TGI in assay [1], in assay [2], in [3], in assay [4], in [5] and in assay [6] was above 100 µM each time. The TGI in assay [7], in assay [8] and in [9] was above 100 µM each time.

Consider `CCCCCCCCCCCCNCCCc1ccccc1`, for which the GI50 in [1] was 1.63 µM; in assay [2], 1.76 µM; in assay [3], 1.72 µM; in assay [4] it was 1.74 µM; in assay [5] it was 2.07 µM; in assay [6] it was 1.78 µM. Besides, the GI50 was 1.43 µM in assay [7], 2.3 µM in assay [8] and 2.15 µM in assay [9]. Also, the TGI worked out at 3.1 µM in assay [1]; 3.29 µM in [2]; 3.23 µM in assay [3]; 3.18 µM in assay [4]; 5.35 µM in assay [5]; 3.35 µM in assay [6]. Besides, the values for the TGI in [7], in assay [8] and in [9] were 2.89 µM, 6.69 µM and 5.32 µM, respectively.

As for `O=S(=O)([O-])c1ccc(C=Nc2ccccc2)c([O-])c1.O=S(=O)([O-])c1ccc(C=Nc2ccccc2)c([O-])c1.[Co+2]`, the GI50 in assay [1] was above 100 µM; in assay [2], 3.96 µM; in [3], above 100 µM; in assay [4] it was above 100 µM; in [5], above 100 µM; in assay [6], 55.2 µM. The GI50 in [7] was above 100 µM; in assay [9] it was 11.7 µM. In addition, the TGI in assay [1], in assay [2], in assay [3], in [4], in assay [5] and in assay [6] was above 100 µM each time. Also, the TGI in assay [7] and in [9] was above 100 µM in each case.

In the case of `O=C1c2ccccc2C(=O)N1CCN(CCN1C(=O)c2ccccc2C1=O)Cc1ccccc1`, the TGI in assay [1], in assay [2], in [3], in [4], in assay [5] and in assay [6] was above 100 µM each time. The TGI in [8] and in [9] was above 100 µM each time.

In the case of `CCOC(=O)C(c1ccsc1)P(=O)(OCC)OCC` (stereo unspecified), the TGI in assay [1] was 28.9 µM; in [2], 23.9 µM; in [3], 32.4 µM; in assay [4], 33.2 µM; in assay [5], 44.4 µM; in assay [6], 55.8 µM. This compound also gave a TGI in [7] of 43.5 µM.

On to `COC(=O)N1C=CC2=C(C)C3Nc4ccccc4C3C(C)=C2C1` (stereo unspecified), for which the TGI in [2] was 6.89 µM; in assay [3], above 100 µM; in assay [4], 14.3 µM; in assay [5], above 100 µM; in [6], 16.8 µM; in assay [7] it was 9.54 µM. Besides, the values for the TGI in [8] and in [9] were above 100 µM and 15.9 µM, respectively.

In the case of `Cc1ccccc1-c1cc(=O)c2cc(C)c(C)c(C(=O)O)c2o1`, the TGI in assay [2], in assay [3], in [4], in assay [5], in [6] and in [7] was above 100 µM each time. In assay [9], the TGI was above 100 µM.

In the case of `CC1Nc2ccccc2NC1C=C(C#N)C#N` (stereo unspecified), the TGI in [1] turned out to be 31.3 µM; in assay [2], 32.6 µM; in assay [3], 31 µM; in assay [5] it was 36.3 µM; in assay [6], 54.1 µM; in assay [7], 30.3 µM. The same compound showed a TGI in assay [9] of 7.97 µM.

Regarding `Nc1ncnc2c1ncn2C1(CO)OC(CO)C(O)C1O` (stereo unspecified), the TGI in assay [1], in assay [3], in [4], in [5], in assay [6] and in assay [7] was above 100 µM in each case. The TGI in assay [8] and in [9] was above 100 µM each time.

On to `CN1C=C(C(N)=O)Cc2ccsc21`, for which the TGI in [1], in assay [2], in [3], in assay [4], in assay [5] and in [6] was above 100 µM throughout. In addition, the TGI in assay [7] and in [9] was above 100 µM each time.
